Reference: paper PMC8710297, “Identification of potent SENP1 inhibitors that inactivate SENP1/JAK2/STAT signaling pathway and overcome platinum drug resistance in ovarian cancer” (Clinical and Translational Medicine, 2021)

Biological target: T1, SENP1(C603A) (Homo sapiens, UniProt Q9P0U3, C603A)
T1 construct: GST; made in house
T1 sequence (Q9P0U3 1-644 C603A): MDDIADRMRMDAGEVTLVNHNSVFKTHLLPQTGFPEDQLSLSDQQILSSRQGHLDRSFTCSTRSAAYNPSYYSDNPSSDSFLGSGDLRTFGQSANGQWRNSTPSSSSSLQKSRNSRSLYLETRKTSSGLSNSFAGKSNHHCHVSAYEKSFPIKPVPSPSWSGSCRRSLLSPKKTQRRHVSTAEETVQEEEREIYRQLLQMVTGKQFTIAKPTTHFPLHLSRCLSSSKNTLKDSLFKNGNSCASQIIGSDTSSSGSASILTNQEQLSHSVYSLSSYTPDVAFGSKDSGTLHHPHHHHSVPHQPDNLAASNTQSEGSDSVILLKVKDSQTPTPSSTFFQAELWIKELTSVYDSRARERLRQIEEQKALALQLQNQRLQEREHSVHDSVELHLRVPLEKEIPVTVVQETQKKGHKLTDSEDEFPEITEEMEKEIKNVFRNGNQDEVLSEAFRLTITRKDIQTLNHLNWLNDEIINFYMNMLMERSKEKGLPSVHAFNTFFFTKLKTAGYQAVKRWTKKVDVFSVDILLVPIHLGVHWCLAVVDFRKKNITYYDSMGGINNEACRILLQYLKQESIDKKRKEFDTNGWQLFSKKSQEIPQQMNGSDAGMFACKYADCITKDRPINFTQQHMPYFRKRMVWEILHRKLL
Assay: In vitro thermal shift assay with mutant GST-SENP1(C603A)
Assay type: binding
Settings: compared to DMSO
Procedure: FIGURE 2 UA directly interacts with Sentrin‐specific protease 1 (SENP1). (A) Cellular thermal shift assay to examine the interaction of UA with SENP1. IGROV1 CR cells pretreated with MG132 (10 μM, 1 h) were incubated with DMSO or UA for 4 h before being shifted to indicated temperatures. SENP1 stability was analyzed by using Western blot against SENP1 antibody. Right panel, quantification of non‐denatured SENP1 fraction shown in the left panel. (B) Cell‐free thermal shift assay to examine interactions of UA with SENP1. Purified SENP1 proteins were incubated with DMSO or UA for 4 h before being shifted to the indicated temperatures. SENP1 stability was analyzed by using Western blot against SENP1 antibody. Right panel, quantification of non‐denatured SENP1 fraction shown in the left panel. (C) The predicted docking pose of UA (C: green; H: white; O: red) at the hydrophobic catalytic cleft of SENP1 (C: salmon; H: white; O: red; N: blue). Key amino acid residues were highlighted. […] Stability of SENP1(C603A) was analyzed by using Western blot against SENP1 antibody. […] Left; Ultra‐high performance liquid‐chromatography‐MS/MS analyses of associated UA in indicated samples, right; quantification of data shown in left (the binding affinity of UA with SENP1‐C603A was normalized as 1). […]
The qu anti ficatio n of immunohistochemical sta in ing wa s scored blindly at lea st by two independent obser vers. […]

Row | thermal stability of purified mutant SENP1(C603A) | SMILES
1 | not increased | CC1(C)CC[C@]2(C(=O)O)CC[C@]3(C)C(=CC[C@@H]4[C@@]5(C)CC[C@H](O[C@@H]6O[C@H](C(=O)O)[C@@H](O)[C@H](O[C@@H]7OC[C@@H](O)[C@H](O)[C@H]7O)[C@H]6O)C(C)(C)[C@@H]5CC[C@]43C)[C@@H]2C1 [Mc, Momordin Ιc]
2 | not increased | C[C@H]1[C@H](C)CC[C@]2(C(=O)O)CC[C@]3(C)C(=CC[C@@H]4[C@@]5(C)CC[C@H](O)C(C)(C)[C@@H]5CC[C@]43C)[C@H]12 [UA, ursolic acid, reference compound]
